For this assay, the system named is Hypertensive Activity of Angiotensin I. Kind of assay: Effect against hypertensive activity of angiotensin I in anaesthetized-cannulated rats after oral dosing. It counts as in vivo, Male rats (Sprague-Dawley). Particulars: Rattus norvegicus, 138 µM/kg orally, corrected by angiotensin II response. How it is done: Male rats (Sprague-Dawley) weighing 230 to 350 g, which were fed under free access to drinking water and feeds, were used as experimental animals. The rats were anaesthetized with intraperitoneal administration of pentobarbital sodium (50 mg/kg) on the day before the test day, and a polyethylene tube was inserted into each femoral artery for measurement of blood pressare and the femoral vein for injection of angiotensin I and II, and then the tubes were fixed.
On the test day, an average blood pressure in the control phase was recorded on an electric haemedynamemeter (MP-4T model manufactured by Nippon Koden, Japan) and, thereafter, angiotensin I and then angionensin II were injected through the femoral vein at a dose of […] and 100 ng/kg, respectively, to measure the hypertensive activity. Then, 138 µM/kg of the compound of this invention were administrated orally as an aqueous solution or an aqueous gum arabic suspension, […], angiotensin I and II were injected repeatedly to trace hypertensive reactions. In calculating the percentage inhibition to the hypertensive activity of angiotensin 1, the percentage inhibitory value was corrected based on the variation with time in the hypertensive reaction by anziotensin II.

The mark [1] stands for this setting: 20 min, After 20 min, read-out: Percent Inhibition (%) against Hyper-tensive Reaction by Angiotensin I After 20 min.
Where [2] appears, read: 1 h, After 60 min, read-out: Percent Inhibition (%) against Hyper-tensive Reaction by Angiotensin I After 60 min.
Setting [3] is: 2 h, After 120 min, read-out: Percent Inhibition (%) against Hyper-tensive Reaction by Angiotensin I After 120 min.

Molecules are shown by their SMILES. Like-named read-outs stand apart in the source and are kept apart here.

In the case of `CC(=O)SCC(C)C(=O)N1Cc2cc(C(C)(C)C)ccc2CC1C(=O)O` (stereo not drawn) [Example 3, 2-(3-acetylthio-2-methylpropionyl)-7-tert-utyl-1,2,3,4-tetrahydroisoquinoline-3-carboxylic acid], the inhibition in vivo at 138 µM, 138 µmol/kg under setting [1] was found to be 86%; the inhibition in vivo at 138 µM, 138 µmol/kg under setting [2] stood at 94%; the inhibition in vivo at 138 µM, 138 µmol/kg under setting [3] was found to be 90%.

As to `CC(=O)SCC(C)C(=O)N1Cc2cc3c(cc2CC1C(=O)O)CCCC3` (stereo not drawn) [Example 4], the inhibition in vivo at 138 µM, 138 µmol/kg under setting [1] came to 90%; the inhibition in vivo at 138 µM, 138 µmol/kg under setting [2] was determined as 79%; the inhibition in vivo at 138 µM, 138 µmol/kg under setting [3] was determined as 63%.

On to `CC(=O)SCC(C)C(=O)N1[C@H](C)c2cc(O)c(O)cc2C[C@H]1C(=O)O` (stereo partly drawn) [Example 5, (M, 3S)-2-(5-acetylthio-2-methylpropionyl)-6,7-dihycroxy-1-methyl-1,2,3,4-tetrahydroisquinoline-3-carboxylie acid], for which the inhibition in vivo at 138 µM, 138 µmol/kg under setting [1] was found to be 84%; the inhibition in vivo at 138 µM, 138 µmol/kg under setting [2] was 98%; the inhibition in vivo at 138 µM, 138 µmol/kg under setting [3] amounted to 96%.

As to `COc1ccc2c(c1)CN(C(=O)C(C)CSC(C)=O)C(C(=O)O)C2` (stereo not drawn) [Example 23, 2-(3-acetylthio-2-methylpropionyl)-7-methoxy-1,2, 3.4-tetrahydroisoquinoline-3-carboxylic acid], the inhibition in vivo at 138 µM, 138 µmol/kg was found to be 80% under setting [1], 82% under setting [2] and 87% under setting [3].

Take `CC(=O)SCC(C)C(=O)N1Cc2cc(N3CCCC3)ccc2CC1C(=O)O` (stereo not drawn) [Example 43]: the inhibition in vivo at 138 µM, 138 µmol/kg amounted to 100% under setting [1], 95% under setting [2] and 87% under setting [3].

As for `CC(CS)C(=O)N1Cc2cc(C(C)(C)C)ccc2C[C@H]1C(=O)O` (stereo partly drawn) [Example 51, (3S)-7-tert-butyl-2-(3-mercapto-2-methylproplonyl)-1,2,3,4-tetrahydroisoquinoline-3-carboxylic acid], the inhibition in vivo at 138 µM, 138 µmol/kg under setting [1] came out at 100%; the inhibition in vivo at 138 µM, 138 µmol/kg under setting [2] amounted to 100%; the inhibition in vivo at 138 µM, 138 µmol/kg under setting [3] is 78%.

Take `CC(=O)SCC(CSC(C)=O)C(=O)N1Cc2cc(O)c(O)cc2C[C@H]1C(=O)O` [Example 56, (S)-2-(3-acetylthio-2-acetylthiomethyl-propionyl)-6,7-dihydroxy-1,2,3,4-tetrahydroisoquinoline-3-carboxylic acid]: the inhibition in vivo at 138 µM, 138 µmol/kg came to 80% under setting [1], 84% under setting [2] and 69% under setting [3].

Turning to `CC(=O)SCC(CSC(C)=O)C(=O)N1Cc2cc3c(cc2CC1C(=O)O)CCCC3` (stereo not drawn) [Example 58, 2-(3-acetylthio-2-acetylthiomethylpropionyl)-1,2,3,4,6,7,8,9-octahydrobenzo[g]isoquinoline-3--carboxylic aeid], the inhibition in vivo at 138 µM, 138 µmol/kg runs as follows: under setting [1], 80%; under setting [2], 78%; under setting [3], 66%.

As to `CC(=O)SCC(CSC(C)=O)C(=O)N1Cc2ccc(O)cc2CC1C(=O)O` (stereo not drawn) [Example 60, 2-(3-acetylthio-2-acetylthiomethylpropionyl)-6-hydroxy-1,2,3,4-tetrahydroisoquinoline-3-carboxylic acid], the inhibition in vivo at 138 µM, 138 µmol/kg stood at 82% under setting [1], 77% under setting [2] and 71% under setting [3].

In the case of `CC(=O)SCC(CSC(C)=O)C(=O)N1Cc2cc(C(C)C)ccc2CC1C(=O)O` (stereo not drawn) [Example 61, 2-(3-aeetylthio-2-acetylthiomethylpropionyl)-7-isopropyl-1,2,3,4-tetrahydroisoquinoline-3-carboxylic acid], the inhibition in vivo at 138 µM, 138 µmol/kg is, setting by setting: under setting [1], 78%; under setting [2], 84%; under setting [3], 58%.

The values above are taken from EP0018104A2, “Tetrahydroisoquinolines, their production and the compounds and pharmaceutical compositions containing them for use in the prevention or treatment of hypertension” (Takeda Chemical Industries, Ltd., priority 1979, dated 1980).
